Article PMC1310925, “Organotins Disrupt the 11β-Hydroxysteroid Dehydrogenase Type 2–Dependent Local Inactivation of Glucocorticoids” (Environmental Health Perspectives, 2005)

What was measured:
[1] = target: T1, 17β-HSD2 (Homo sapiens, UniProt P37059); assay: 17β-HSD2 activity in cell lysates (estradiol to estrone); format: biochemical; conditions: for IC50: lysates of transfected HEK-293 cells, 200 nM estradiol, NAD+, read-out: IC50 17β-HSD2, cell lysate
T1 construct: expressed in transfected cells; host or cells: HEK-293, calcium-phosphate transfection, lysate
T1 sequence (P37059 1-387): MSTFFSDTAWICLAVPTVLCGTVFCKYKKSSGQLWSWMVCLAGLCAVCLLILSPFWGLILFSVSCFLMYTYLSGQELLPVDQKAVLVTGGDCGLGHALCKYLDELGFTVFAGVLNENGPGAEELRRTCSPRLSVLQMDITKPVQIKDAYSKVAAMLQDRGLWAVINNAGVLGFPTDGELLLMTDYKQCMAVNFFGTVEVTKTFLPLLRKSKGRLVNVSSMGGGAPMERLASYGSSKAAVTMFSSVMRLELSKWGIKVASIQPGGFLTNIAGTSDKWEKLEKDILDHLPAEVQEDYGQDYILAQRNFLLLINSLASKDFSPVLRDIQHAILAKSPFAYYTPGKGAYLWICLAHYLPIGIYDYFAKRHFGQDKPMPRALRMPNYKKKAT
Experimental: (§1) For determination of 11β-HSD1, 17β-HSD1, and 17β-HSD2 activity, HEK-293 cells transfected by the calcium-phosphate precipitation method were harvested 48 hr later, washed with PBS, and centrifuged for 3 min at 150 × g. Supernatants were removed, cell pellets quick-frozen in a dry ice ethanol bath, and stored at −70°C. For assaying 11β-HSD1, we dissolved pellets in TS2 buffer; for 17β-HSD1 or 17β-HSD2, we used a buffer containing 50 mM potassium phosphate, 20% glycerol, and 1 mM EDTA. We measured 11β-HSD1 oxoreductase activity as described recently ([Atanasov et al. 2004]), using radiolabeled cortisone as substrate. 17β-HSD1 and 17β-HSD2 activities were measured in the presence of radiolabeled estrone or estradiol and unlabeled steroid at final concentrations of 200 nM and 500 μM NADPH or NAD^+, respectively.

[2] = target: T2, 11β-HSD2 (Homo sapiens, UniProt P80365); conditions: endogenous enzyme, intact cells
T2 sequence (P80365 1-405): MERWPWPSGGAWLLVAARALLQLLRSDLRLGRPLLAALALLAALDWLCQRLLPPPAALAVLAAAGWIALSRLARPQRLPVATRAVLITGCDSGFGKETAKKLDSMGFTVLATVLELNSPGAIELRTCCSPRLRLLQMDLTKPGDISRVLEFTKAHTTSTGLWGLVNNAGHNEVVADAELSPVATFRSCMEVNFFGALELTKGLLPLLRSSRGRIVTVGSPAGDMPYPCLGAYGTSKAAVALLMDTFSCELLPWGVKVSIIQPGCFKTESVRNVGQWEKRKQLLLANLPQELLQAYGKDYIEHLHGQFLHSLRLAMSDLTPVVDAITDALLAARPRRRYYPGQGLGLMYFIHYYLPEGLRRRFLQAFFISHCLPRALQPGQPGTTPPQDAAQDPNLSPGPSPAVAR
Experimental: (§2) SW-620 (human colorectal adenocarcinoma) cells and JEG-3 (human choriocarcinoma) cells were cultured according to the recommendations of the supplier (American Type Culture Collection, Manassas, VA, USA).
(§3) HEK-293 cells stably transfected with 11β-HSD2 (25,000 cells per well) were seeded 24 hr prior to the assay in poly-D-lysine coated 96-well Biocoat plates (Becton Dickinson, Basel, Switzerland). The medium was carefully removed, followed by the addition of 30 μL fresh medium, 10 μL medium containing various concentrations of organotins, and 10 μL radiolabeled cortisol. The reaction volume was 50 μL, with a final cortisol concentration of 40 nM. The cells were incubated for 2 hr at 37°C under 5% CO2. We stopped reactions by adding an excess of unlabeled cortisone and cortisol in methanol, and separated steroids using thin-layer chromatography, followed by scintillation counting. 11β-HSD2 activity in JEG-3, SW-620, and RCCD-2 cells was measured similarly by adjusting the cell density and reaction time to obtain a maximal conversion of cortisol between 15 and 25%.

[3] = target: 11β-HSD2 (Rattus norvegicus, UniProt P50233)
Experimental: as §2, §3

[4] = target: 11β-HSD2 Cys^48Ser (Homo sapiens, UniProt P80365, C48S); conditions: read-out: TBT IC50 ± SD, Cys^48Ser; mutant Cys^48Ser, lysate
Experimental: (§4) Cells were rinsed 3 times with phosphate-buffered saline (PBS) and resuspended in 2 mL ice-cold buffer TS2 (100 mM NaCl, 1 mM EGTA, 1 mM EDTA, 1 mM MgCl2, 250 mM sucrose, 20 mM Tris-HCl, pH 7.4). […] For determinationof 11β-HSD2 activity, aliquots were thawed, sonicated, and diluted 1:12 in buffer TS2 (4°C). We carried out reactions in a final volume of 20 μL containing 10 nCi [1,2,6,7-^3H]-cortisol, 400-μM NAD^+, and different concentrations of unlabeled cortisol. […] Incubations were for 10 min at 37°C.
(§5) All constructs were verified by sequencing and recloned into pcDNA3 expression vector. Wild-type and mutant enzymes were expressed in HEK-293 cells, lysates were prepared, and proteins were separated by sodium dodecyl sulfate (SDS) gel electrophoresis. Proteins were transferred to nitrocellulose, and expression levels of 11β-HSD2 constructs were detected using mouse monoclonal antibody M2 raised against the FLAG epitope and visualized with a horseradish peroxidase conjugated anti-mouse antibody and enhanced chemiluminescence Western kit (Pierce, Rockford, IL, USA). After detection of 11β-HSD2 constructs, nitrocellulose membranes were stripped and incubated with rabbit polyclonal anti-actin IgG (Santa Cruz Biotechnology Inc., Santa Cruz, CA, USA) and horseradish peroxidase–conjugated goat anti-rabbit IgG to adjust for the amount of proteins loaded on the gel. The expression of mutant relative to wild-type enzyme was adjusted for calculation of kinetic parameters.

[5] = target: 11β-HSD2 Cys^264Ser (Homo sapiens, UniProt P80365, C264S); conditions: lysate
Experimental: as §4, §5

[6] = target: 11β-HSD2 Cys^128Ser (Homo sapiens, UniProt P80365, C128S); conditions: read-out: TBT IC50 ± SD, Cys^128Ser; mutant Cys^128Ser, lysate
Experimental: as §4, §5

[7] = target: 11β-HSD2 Cys^188Ser (Homo sapiens, UniProt P80365, C188S); conditions: read-out: TBT IC50 ± SD, Cys^188Ser; mutant Cys^188Ser, lysate
Experimental: as §4, §5

[8] = target: 11β-HSD2 Cys^371Ser (Homo sapiens, UniProt P80365, C371S); conditions: read-out: TBT IC50 ± SD, Cys^371Ser; mutant Cys^371Ser, lysate
Experimental: as §4, §5

[9] = target: 11β-HSD2 Cys^127Ser (Homo sapiens, UniProt P80365, C127S); conditions: read-out: TBT IC50 ± SD, Cys^127Ser; mutant Cys^127Ser, lysate
Experimental: as §4, §5

[10] = target: 11β-HSD2 Cys^248Ser (Homo sapiens, UniProt P80365, C248S); conditions: read-out: TBT IC50 ± SD, Cys^248Ser; mutant Cys^248Ser, lysate
Experimental: as §4, §5

[11] = target: T2, 11β-HSD2; assay: 11β-HSD2 activity in lysates of stably transfected HEK-293 cells (cortisol to cortisone); format: biochemical; design: expressed in transfected cells; host or cells: HEK-293, stably transfected; conditions: for Vmax of 11β-HSD2 in presence of inhibitor: control 2.14 ± 0.32
Experimental: Cells were rinsed 3 times with phosphate-buffered saline (PBS) and resuspended in 2 mL ice-cold buffer TS2 (100 mM NaCl, 1 mM EGTA, 1 mM EDTA, 1 mM MgCl2, 250 mM sucrose, 20 mM Tris-HCl, pH 7.4). Aliquots of the cell suspension were frozen at −20°C, retaining full enzymatic activity for at least 3 months. For determinationof 11β-HSD2 activity, aliquots were thawed, sonicated, and diluted 1:12 in buffer TS2 (4°C). We carried out reactions in a final volume of 20 μL containing 10 nCi [1,2,6,7-^3H]-cortisol, 400-μM NAD^+, and different concentrations of unlabeled cortisol. […] Incubations were for 10 min at 37°C.

[12] = target: T3, 17β-HSD1 (Homo sapiens, UniProt P14061); assay: 17β-HSD1 activity in cell lysates (estrone to estradiol); format: biochemical; conditions: for inhibition of 17β-HSD1: lysate; for IC50: lysates of transfected HEK-293 cells, 200 nM estrone, NADPH, read-out: IC50 17β-HSD1, cell lysate
T3 construct: expressed in transfected cells; host or cells: HEK-293, calcium-phosphate transfection, lysate
T3 sequence (P14061 1-328): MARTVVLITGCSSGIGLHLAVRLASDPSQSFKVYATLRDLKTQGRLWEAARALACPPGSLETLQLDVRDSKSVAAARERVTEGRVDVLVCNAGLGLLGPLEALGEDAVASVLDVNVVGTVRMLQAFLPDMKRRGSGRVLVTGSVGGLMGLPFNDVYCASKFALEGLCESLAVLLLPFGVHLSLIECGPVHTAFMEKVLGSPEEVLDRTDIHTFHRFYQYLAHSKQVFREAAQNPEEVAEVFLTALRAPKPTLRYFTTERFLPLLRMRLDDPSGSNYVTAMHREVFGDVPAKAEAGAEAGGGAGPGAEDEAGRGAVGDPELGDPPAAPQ
Experimental: as §1

[13] = target: T2, 11β-HSD2; assay: 11β-HSD2 activity in intact stably transfected HEK-293 cells; format: cell-based; design: expressed in transfected cells; host or cells: HEK-293, stably transfected; conditions: for IC50: HEK-293 stably transfected, 40 nM cortisol, 2 hr; for 11β-HSD2 activity in intact cells, compound alone: concentrations 50% below their IC50 value
[14] = ref McVey and Cooke 2003; cited from earlier work
[15] = target: T4, 11β-HSD1 (Homo sapiens, UniProt P28845); assay: 11β-HSD1 oxoreductase activity in cell lysates (cortisone to cortisol); format: biochemical; conditions: for inhibition of 11β-HSD1-dependent conversion of cortisone to cortisol: concentrations up to 200 μM, lysate; for IC50: lysates of transfected HEK-293 cells, cortisone as substrate, read-out: IC50 11β-HSD1, cell lysate
T4 construct: expressed in transfected cells; host or cells: HEK-293, calcium-phosphate transfection, lysate
Experimental: as §1

[16] = 40 nM cortisol, 400 μM NAD+, 10 min 37°C, read-out: IC50 11β-HSD2, cell lysate

T4 sequence (P28845 whole entry): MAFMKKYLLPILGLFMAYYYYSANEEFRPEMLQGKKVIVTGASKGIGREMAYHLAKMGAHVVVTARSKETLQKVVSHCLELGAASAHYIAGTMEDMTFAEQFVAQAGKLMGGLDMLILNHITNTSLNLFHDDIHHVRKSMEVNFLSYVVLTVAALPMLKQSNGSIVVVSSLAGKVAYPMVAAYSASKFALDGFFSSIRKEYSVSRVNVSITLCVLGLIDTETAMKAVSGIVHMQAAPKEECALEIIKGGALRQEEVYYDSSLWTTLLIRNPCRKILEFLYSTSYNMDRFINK
Chain of 11β-HSD2 (Rattus norvegicus, UniProt P50233) (P50233 whole entry): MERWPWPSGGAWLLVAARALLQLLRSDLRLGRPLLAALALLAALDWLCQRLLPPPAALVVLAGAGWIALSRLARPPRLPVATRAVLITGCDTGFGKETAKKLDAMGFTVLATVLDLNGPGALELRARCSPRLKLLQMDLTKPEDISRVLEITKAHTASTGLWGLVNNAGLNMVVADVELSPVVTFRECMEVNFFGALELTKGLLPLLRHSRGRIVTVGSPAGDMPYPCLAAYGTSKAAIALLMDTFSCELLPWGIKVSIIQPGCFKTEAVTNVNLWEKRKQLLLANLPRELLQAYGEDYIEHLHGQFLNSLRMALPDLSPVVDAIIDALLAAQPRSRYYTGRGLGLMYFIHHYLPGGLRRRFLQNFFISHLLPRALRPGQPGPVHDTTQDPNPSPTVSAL
Chain of 11β-HSD2 Cys^264Ser (P80365 whole entry C264S): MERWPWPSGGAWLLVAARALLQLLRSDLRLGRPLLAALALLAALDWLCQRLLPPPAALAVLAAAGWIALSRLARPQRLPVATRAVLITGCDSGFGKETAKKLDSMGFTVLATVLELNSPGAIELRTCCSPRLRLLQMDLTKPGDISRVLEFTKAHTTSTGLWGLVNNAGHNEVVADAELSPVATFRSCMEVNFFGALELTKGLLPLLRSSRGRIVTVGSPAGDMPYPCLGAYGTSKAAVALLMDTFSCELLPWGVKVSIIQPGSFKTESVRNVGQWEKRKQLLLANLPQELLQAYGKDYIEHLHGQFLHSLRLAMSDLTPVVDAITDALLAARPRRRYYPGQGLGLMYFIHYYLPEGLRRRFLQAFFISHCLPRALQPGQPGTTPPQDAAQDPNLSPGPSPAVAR
Chain of 11β-HSD2 Cys^371Ser (P80365 whole entry C371S): as the sequence (P80365 whole entry C264S) above, with S264C, C371S counted along it
Chain of 11β-HSD2 Cys^48Ser (P80365 whole entry C48S): as the sequence (P80365 whole entry C264S) above, with C48S, S264C counted along it
Chain of 11β-HSD2 Cys^188Ser (P80365 whole entry C188S): as the sequence (P80365 whole entry C264S) above, with C188S, S264C counted along it
Chain of 11β-HSD2 Cys^127Ser (P80365 whole entry C127S): as the sequence (P80365 whole entry C264S) above, with C127S, S264C counted along it
Chain of 11β-HSD2 Cys^128Ser (P80365 whole entry C128S): as the sequence (P80365 whole entry C264S) above, with C128S, S264C counted along it
Chain of 11β-HSD2 Cys^248Ser (P80365 whole entry C248S): as the sequence (P80365 whole entry C264S) above, with C248S, S264C counted along it

## CCC[CH2][Sn]([CH2]CCC)[CH2]CCC [TBT, tributyltin]
[1]
  IC50: > 200 µM
[2]; colon-derived
  inhibition of 11β-HSD2 in SW-620 cells compared with HEK-293 cells: highly similar to that observed in HEK-293 cells
[2]; placenta-derived
  inhibition of 11β-HSD2 in JEG-3 cells compared with HEK-293 cells: highly similar to that observed in HEK-293 cells
[3]; intact cells
  stronger inhibition in RCCD-2 cells than in HEK-293 cells: approximately 2 fold
[3]; read-out: IC50 11β-HSD2 in intact RCCD-2 cells, endogenous enzyme, rat renal cortical collecting duct cells
  IC50: 830 ± 230 nM
[4]
  IC50: 2110 ± 330 nM
[5]
  increase in IC50 with Cys^264Ser versus wild-type: 2 fold
[5]; read-out: TBT IC50 ± SD, Cys^264Ser, mutant Cys^264Ser
  IC50: 4.2 ± 0.44 µM
[6]
  IC50: 1870 ± 530 nM
[7]
  IC50: 1950 ± 380 nM
[8]
  IC50: 2170 ± 500 nM
[9]
  IC50: 2230 ± 330 nM
[10]
  IC50: 2070 ± 470 nM
[11]; [16]
  IC50: 1900 ± 660 nM
[11]; 2 μM TBT versus control
  increase of apparent Km: 2 fold
[11]; 2 μM TBT, preincubation 5 or 10 min, lysate
  change of inhibitory effect upon preincubation: the changes did not reach significance
[11]; 2 μM TBT
  Vmax of 11β-HSD2 in presence of inhibitor: 1.66 ± 0.40 nmol/h/mg
[11]; 3 μM TBT versus control
  increase of apparent Km: 3 fold
[11]; 3 μM TBT
  Vmax of 11β-HSD2 in presence of inhibitor: 1.48 ± 0.48 nmol/h/mg
[11]; 2-fold and 4-fold dilution of the EI complex
  effect of dilution of enzyme-inhibitor complex on relative inhibition: proportional decrease of the relative inhibitory effect
[11]; Table 2, wild-type enzyme, lysate, read-out: TBT IC50 ± SD, wild-type 11β-HSD2
  IC50: 1900 ± 460 nM
[11]; from change of Km and Vmax with TBT
  mode of inhibition of 11β-HSD2: mixed-competitive mode of inhibition
[12]
  inhibition of 17β-HSD1: neither TBT nor TPT inhibited
  IC50: > 200 µM
[13]
  IC50: 1520 ± 430 nM
  11β-HSD2 activity in intact cells, compound alone: reduced 11β-HSD2 activity only slightly
[14]
  toxic daily intake: 0.25 μg/kg body weight
[15]
  inhibition of 11β-HSD1-dependent conversion of cortisone to cortisol: did not inhibit
  IC50: > 200 µM

## c1cc[c]([Sn]([c]2ccccc2)[c]2ccccc2)cc1 [TPT, triphenyltin]
[1]; lysates
  IC50 for 17β-HSD2 relative to IC50 for 11β-HSD2: 6 fold
[1]
  IC50: 19 ± 3 µM
[11]; [16]
  IC50: 3190 ± 730 nM
[12]
  inhibition of 17β-HSD1: neither TBT nor TPT inhibited
  IC50: > 200 µM
[13]
  IC50: 990 ± 240 nM
  11β-HSD2 activity in intact cells, compound alone: reduced 11β-HSD2 activity only slightly
[15]
  inhibition of 11β-HSD1-dependent conversion of cortisone to cortisol: did not inhibit
  IC50: > 200 µM

## N[C@@H](CCC(=O)N[C@@H](CS)C(=O)NCC(=O)O)C(=O)O [glutathione, reference compound]
[11]; not shown
  prevention of organotin-dependent inhibition of 11β-HSD2: not able to prevent
